The text below walks through data of paper PMC4434909, “In vitro properties of designed antimicrobial peptides that exhibit potent antipneumococcal activity and produces synergism in combination with penicillin” (Scientific Reports, 2015).

Where only a bound is given, the exact number is not on record here.

For one data set, the system named is NL20 cell line. In words: Cytotoxicity against human cell lines (CellTiter 96 AQueous). The data set is classed as cell-based. As to the method: (§1) Both the NL20 human lung bronchial normal epithelial cell line and the A549 human lung alveolar adenocarcinoma epithelial cell line were used for cell cytotoxicity tests. Besides investigating the cytotoxicity of peptides, differences in cell viability between the two cell lines can be used to evaluate the cell line selectivity and to assess potential anticancer potential of the peptides. NL20 cell line was grown in Ham's F12 medium and A549 cell line was grown in Roswell Park Memorial Institute medium. Both media were supplemented with fetal bovine serum to 10% (v/v) as growth medium or 2% (v/v) as maintenance medium in cell cytotoxicity testing. The assay was performed as described by Lee et al.[26]. NL20 cells was seeded overnight at 3 × 10^4 cells/well in 96-well cell culture-treated flat bottom microtiter plate and treated with serial dilutions of peptide at a final concentration of 1.95–250 μg/ml. PEN was tested from 0.03–4 μg/ml, the same range used to classify the susceptibility of pneumococcal isolates in this study. Test using A549 cells followed the same procedures with 1 × 10^4 cells/well. Plates were incubated at 37°C under 5% CO2 for 24, 48, and 72 hrs. Cell viability was detected by using CellTiter 96® AQueous Non-Radioactive Cell Proliferation assay (Promega, USA) and the colorimetric changes were read with Glomax multidetection system (Promega, USA) at OD 490 nm. Results were pooled from three independent experiments and expressed as mean ± SD. […] Imax was the percentage of cell viable treated with peptides/PEN at the maximum concentration as defined throughout this study (all peptides 250 μg/ml, PEN 4 μg/ml).

Another data set concerns A549 cell line. Described as above. The data set is classed as cell-based. As to the method: as §1
The test system of another data set is PRSP, PISP, and PSSP. The data set is classed as cell-based, Streptococcus pneumoniae. Conditions: 30 min post treatment, 2× MIC, 5 × 10^6 CFU/ml in CAMHB, plate count, relative to untreated control. On the procedure:
This assay was performed to evaluate the killing kinetics of peptides. One PRSP, PISP, and PSSP isolate were each grown and prepared to 5 × 10^6 CFU/ml. Each isolate in CAMHB was challenged with peptides at two times the respective MIC values. At the indicated time intervals (0, 30, 60, 120, 150, 180, 210, and 240 min; “0” indicate pretreatment), 10 μl of suspension was removed and immediately serially diluted in cold phosphate-buffered saline to arrest further reaction before spread-plated on MHA to obtain viable colony counts. The percentage cell recovered was calculated by dividing the surviving CFU of the treated cells over the surviving CFU of the untreated control cells at the respective time points. Results were pooled from three independent experiments and expressed as mean ± standard deviation (SD).

Another data set has as its system human erythrocytes. In words: Hemolytic activity. The data set is classed as cell-based. As to the method:
Hemolytic assay was performed as described. Freshly drawn human erythrocytes were rinsed three times with PBS and resuspended in PBS to 4% (v/v). One hundred microliters of the suspension was added to 96-well microtiter plate containing equal volume of peptides to give final concentrations of peptides encompassing the range of 1.96–250 μg/ml. PBS and 0.1% (v/v) Triton-X 100 were used as 0% and 100% hemolytic control respectively. Plates were incubated at 37°C for 1 hr. Subsequently, the plate was centrifuged and the supernatant was transferred to a new plate. The release of hemoglobin in the supernatant was monitored at absorbance of 450 nm using Glomax Multidetection system (Promega, USA). Results were pooled from three independent experiments and expressed as mean ± SD. HC10 and HC50 were defined as the peptide concentrations causing 10% and 50% hemolysis on human erythrocytes, respectively. Hmax was the percentage hemolysis observed at the maximum concentration as defined throughout this study (all peptides 250 μg/ml, PEN 4 μg/ml).

Take penicillin [reference compound]: in the data set on NL20 cell line, the “IC50, NL20 cell line, 24 hrs” value was greater than 4 µg/mL; the “IC50, NL20 cell line, 48 hrs” value is greater than 4 µg/mL; the “IC50, NL20 cell line, 72 hrs” value is greater than 4 µg/mL; the “Imax, NL20 cell line, 24 hrs” value was determined as 105.2 ± 0.2%. Further, in the data set with NL20 cell line, the “Imax, NL20 cell line, 48 hrs” value came out at 106.1 ± 6.2% and the “Imax, NL20 cell line, 72 hrs” value stood at 88.3 ± 0.4%. Also, in the data set on A549 cell line, the “IC50, A549 cell line, 24 hrs” value is greater than 4 µg/mL; the “IC50, A549 cell line, 48 hrs” value is greater than 4 µg/mL; the “IC50, A549 cell line, 72 hrs” value is greater than 4 µg/mL. The “CFU recovered (viability), all three groups of pneumococci” value in the data set with PRSP, PISP, and PSSP is recorded as 60–78%. Moreover, in the data set with human erythrocytes, the HC10 was greater than 4 µg/mL and the 50% haemolytic concentration (HC50) is greater than 4 µg/mL.

As a reminder, the HC50 is the concentration that lyses half of the red blood cells. Higher therefore signals weaker haemolysis.
